Test results from patent US20260364089A1, “PYRIDOPYRIMIDINE KRAS INHIBITORS” (Treeline Biosciences, Inc., priority 2022, published 2026).

target: T1, KRas G12V (Homo sapiens, UniProt P01116, G12V); experiment: SOS1-Catalyzed Nucleotide Exchange Assay, KRas G12V (Method 2); format: biochemical; details: Method 2, A; 5 nM KRas G12V (aa 1-169, GDP-loaded), 50 nM SOS1; read-out: KRas G12V IC50 (nM) (Method 2, A)
T1 construct: Biotinylated KRas G12V (aa 1-169) loaded with GDP nucleotide; biotin (biotinylated)
T1 sequence (P01116 1-169 G12V): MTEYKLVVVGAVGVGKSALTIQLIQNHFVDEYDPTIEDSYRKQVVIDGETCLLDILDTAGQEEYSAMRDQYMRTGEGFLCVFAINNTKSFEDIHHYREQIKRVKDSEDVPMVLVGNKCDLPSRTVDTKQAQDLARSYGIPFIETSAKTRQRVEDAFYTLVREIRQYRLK
Method: KRas G12V [Method 2]: Compounds were pre-dispensed via Echo liquid handling (acoustic, touch-free) to generate assay ready plates (ARP). More precisely, a 10-point concentration response curve for each compound was prepared with appropriate top concentration (1 μM, 10 μM, 100 μM). Biotinylated KRas G12V (aa 1-169) loaded with GDP nucleotide and Streptavidin-Europium (SA-EU, Columbia Biosciences) were preincubated in assay buffer (20 mM HEPES pH 7.4, 150 mM NaCl, 5 mM MgCl2, 1 mM DTT, 0.01% Brij-35, 0.3 mg/mL BSA) on ice for 30 min. Separately SOS1 (aa 546-1049) and EDA-GTP-DY647P1 (Jena Bioscience) were preincubated in assay buffer on ice for 30 min. After 30 minutes of incubation for the assay components, 5 μL buffer and 5 μL of KRas G12V-SA-Eu were added to each well of the ARP. After a further 30 min, 5 μL of SOS1-EDA-GTP-D467P1 was added to start the nucleotide exchange reaction. Final concentration in the assay were 5 nM KRas G12V, 50 nM SOS1 (aa 564-1049). The reaction was allowed to proceed for 60-90 minutes after which the plate was read on a plate reader. After normalization of the raw data, the data was fit to a four-parameter logistic curve.

| IC50 [nM] | SMILES |
| --- | --- |
| 1000 to 10000 | Nc1ccc2c(c1)-c1ncc3c(nc(OC[C@@]45CCCN4C[C@H](F)C5)nc3c1F)N1CCCC(O)(CCNC(=O)CCCC2)C1 (stereo partly drawn) [Compound 157a, 3^5-amino-2^8-fluoro-2^2-(((2R,7aS)-2-fluorotetrahydro-1H-pyrrolizin-7a(5H)-yl)methoxy)-1^3-hydroxy-9-aza-2(4,7)-pyrido[4,3-d]pyrimidina-1(1,3)-piperidina-3(1,2)-benzenacycloundecaphan-8-one] |
| ≤ 100 | Nc1cc(Cl)c2c(c1)-c1ncc3c(nc(OC[C@@]45CCCN4C[C@H](F)C5)nc3c1F)N1CCCC(CCNC(=O)CCCC2)C1 (stereo partly drawn) [Compound 154a, 3^5-amino-3^3-chloro-2^8-fluoro-2^2-(((2R,7aS)-2-fluorotetrahydro-1H-pyrrolizin-7a(5H)-yl)methoxy)-9-aza-2(4,7)-pyrido[4,3-d]pyrimidina-1(1,3)-piperidina-3(1,2)-benzenacycloundecaphan-8-one] |
| ≤ 100 | O=C1CCCCc2c(Cl)cc(O)cc2-c2ncc3c(nc(OC[C@@]45CCCN4C[C@H](F)C5)nc3c2F)N2CCCC(O)(CCN1)C2 (single isomer, unassigned) [Compound 140b] |
| 100 to 1000 | Nc1cc2c3c(c(F)ccc3c1)CCCC(=O)NCCC1CCCN(C1)c1nc(OC[C@@]34CCCN3C[C@H](F)C4)nc3c(F)c-2ncc13 (stereo partly drawn) [Compound 189a, 3^3-amino-2^8,3^7-difluoro-2^2-(((2R,7aS)-2-fluorotetrahydro-1H-pyrrolizin-7a(5H)-yl)methoxy)-8-aza-2(4,7)-pyrido[4,3-d]pyrimidina-1(1,3)-piperidina-3(1,8)-naphthalenacyclodecaphan-7-one] |
| ≤ 100 | Nc1cc(Cl)c2c(c1)-c1ncc3c(nc(OC[C@@]45CCCN4C[C@H](F)C5)nc3c1F)N1CCCC(O)(CCNC(=O)CCCC2)C1 (stereo partly drawn) [Compound 156a, 3^5-amino-3^3-chloro-2^8-fluoro-2^2-(((2R,7aS)-2-fluorotetrahydro-1H-pyrrolizin-7a(5H)-yl)methoxy)-13-hydroxy-9-aza-2(4,7)-pyrido[4,3-d]pyrimidina-1(1,3)-piperidina-3(1,2)-benzenacycloundecaphan-8-one] |

same assay, conditions: Method 2, B; 5 nM KRas G12V (aa 1-169, GDP-loaded), 50 nM SOS1; read-out: KRas G12V IC50 (nM) (Method 2, B)

| IC50 [nM] | SMILES |
| --- | --- |
| 100 to 1000 | Nc1cc2c(c(Cl)n1)CCCCC(=O)NCCC1CCCN(C1)c1nc(OC[C@@]34CCCN3C[C@H](F)C4)nc3c(F)c-2ncc13 (stereo partly drawn) [Compound 186a, 1^6-amino-1^2-chloro-2^8-fluoro-2^2-(((2R,7aS)-2-fluorotetrahydro-1H-pyrrolizin-7a(5H)-yl)methoxy)-6-aza-2(7,4)-pyrido[4,3-d]pyrimidina-1(4,3)-pyridina-3(1,3)-piperidinacycloundecaphan-7-one] |
| ≤ 100 | O=C1CCCCc2c(Cl)cc3[nH]ncc3c2-c2c(F)cc3c(nc(OC[C@@]45CCCN4C[C@H](F)C5)nc3c2F)N2CCOCC(CN1)C2 (stereo partly drawn) [Compound 200a, 3^6-chloro-2^6,2^8-difluoro-2^2-(((2R,7aS)-2-fluorotetrahydro-1H-pyrrolizin-7a(5H)-yl)methoxy)-3^1H-9-aza-1(4,6)-oxazepana-2(4,7)-quinazolina-3(4,5)-indazolacyclodecaphan-8-one] |
| ≤ 100 | O=C1CCCCc2c(Cl)cc3[nH]ncc3c2-c2ccc3c(nc(OC[C@@]45CCCN4C[C@H](F)C5)nc3c2F)N2CCCC(O)(CCN1)C2 (stereo partly drawn) [Compound 199a, 1^6-chloro-2^8-fluoro-2^2-(((2R,7aS)-2-fluorotetrahydro-1H-pyrrolizin-7a(5H)-yl)methoxy)-3^3-hydroxy-1^1H-6-aza-2(7,4)-quinazolina-1(4,5)-indazola-3(1,3)-piperidinacycloundecaphan-7-one] |
| 1000 to 10000 | Nc1cc2c(cc1F)CCCCC(=O)NCCC1CCCN(C1)c1nc(OC[C@@]34CCCN3C[C@H](F)C4)nc3c(F)c-2ccc13 (stereo partly drawn) [Compound 163a, 3^5-amino-2^8,3^4-difluoro-2^2-(((2R,7aS)-2-fluorotetrahydro-1H-pyrrolizin-7a(5H)-yl)methoxy)-9-aza-2(4,7)-quinazolina-1(1,3)-piperidina-3(1,2)-benzenacycloundecaphan-8-one] |
| 100 to 1000 | Nc1cc2c(c(Cl)c1F)CCCCC(=O)NCCC1CCCN(C1)c1nc(OC[C@@]34CCCN3C[C@H](F)C4)nc3c(F)c-2ccc13 (stereo partly drawn) [Compound 174a, 3^5-amino-3^3-chloro-2^8,3^4-difluoro-2^2-(((2R,7aS)-2-fluorotetrahydro-1H-pyrrolizin-7a(5H)-yl)methoxy)-9-aza-2(4,7)-quinazolina-1(1,3)-piperidina-3(1,2)-benzenacycloundecaphan-8-one] |
| ≤ 100 | CN(C)CC1(COc2nc3c4ccc(c(F)c4n2)-c2c(c(Cl)cc4[nH]ncc24)CCCCC(=O)NCCC2CCCN3C2)CC1 (single isomer, unassigned) [Compound 197a, 1^6-chloro-2^2-((1-((dimethylamino)methyl)cyclopropyl)methoxy)-2^8-fluoro-1^1H-6-aza-2(7,4)-quinazolina-1(4,5)-indazola-3(1,3)-piperidinacycloundecaphan-7-one] |
| ≤ 100 | O=C1CCCCc2c(Cl)cc3[nH]ncc3c2-c2ncc3c(nc(OC[C@@]45CCCN4C[C@H](F)C5)nc3c2F)N2CCOCC(CN1)C2 (stereo partly drawn) [Compound 203a, 3^6-chloro-2^8-fluoro-2^2-(((2R,7aS)-2-fluorotetrahydro-1H-pyrrolizin-7a(5H)-yl)methoxy)-3^1H-9-aza-1(4,6)-oxazepana-2(4,7)-pyrido[4,3-d]pyrimidina-3(4,5)-indazolacyclodecaphan-8-one] |
| ≤ 100 | O=C1CCCCc2c(Cl)cc(O)cc2-c2ncc3c(nc(OC[C@@]45CCCN4C[C@H](F)C5)nc3c2F)N2CCCC(O)(CCN1)C2 (single isomer, unassigned) [Compound 140b] |
| 100 to 1000 | Nc1cc2c3c(c(F)ccc3c1)CCCC(=O)NCCC1CCCN(C1)c1nc(OC[C@@]34CCCN3C[C@H](F)C4)nc3c(F)c-2ncc13 (stereo partly drawn) [Compound 189a, 3^3-amino-2^8,3^7-difluoro-2^2-(((2R,7aS)-2-fluorotetrahydro-1H-pyrrolizin-7a(5H)-yl)methoxy)-8-aza-2(4,7)-pyrido[4,3-d]pyrimidina-1(1,3)-piperidina-3(1,8)-naphthalenacyclodecaphan-7-one] |
| 100 to 1000 | Nc1cc2c(c(Cl)c1F)CCCCC(=O)NCCC1(O)CCCN(C1)c1nc(OC[C@@]34CCCN3C[C@H](F)C4)nc3c(F)c-2c(F)cc13 (stereo partly drawn) [Compound 183a, 3^5-amino-3^3-chloro-2^6,2^8,3^4-trifluoro-2^2-(((2R,7aS)-2-fluorotetrahydro-1H-pyrrolizin-7a(5H)-yl)methoxy)-1^3-hydroxy-9-aza-2(4,7)-quinazolina-1(1,3)-piperidina-3(1,2)-benzenacycloundecaphan-8-one] |
| 100 to 1000 | CN1CCC[C@H]1COc1nc2c3cnc(c(F)c3n1)-c1cc(N)cc(Cl)c1CCCCC(=O)NCCC1CCCN2C1 (stereo partly drawn) [Compound 171a, 3^5-amino-3^3-chloro-2^8-fluoro-2^2-(((S)-1-methylpyrrolidin-2-yl)methoxy)-9-aza-2(4,7)-pyrido[4,3-d]pyrimidina-1(1,3)-piperidina-3(1,2)-benzenacycloundecaphan-8-one] |
| ≤ 100 | O=C1CCCc2c(F)ccc3cc(O)cc(c23)-c2ncc3c(nc(OC[C@@]45CCCN4C[C@H](F)C5)nc3c2F)N2CCCC(O)(CCN1)C2 (stereo partly drawn) [Compound 136a, 2^8,3^7-difluoro-2^2-(((2R,7aS)-2-fluorotetrahydro-1H-pyrrolizin-7a(5H)-yl)methoxy)-1^3,3^3-dihydroxy-8-aza-2(4,7)-pyrido[4,3-d]pyrimidina-1(1,3)-piperidina-3(1,8)-naphthalenacyclodecaphan-7-one] |
| 100 to 1000 | Nc1cc(Cl)c2c(c1)-c1ncc3c(nc(OC[C@@]45CCCN4C[C@H](F)C5)nc3c1F)N1CCOCC(CNC(=O)CCCC2)C1 (stereo partly drawn) [Compound 162a, 3^5-amino-3^3-chloro-2^8-fluoro-2^2-(((2R,7aS)-2-fluorotetrahydro-1H-pyrrolizin-7a(5H)-yl)methoxy)-9-aza-1(4,6)-oxazepana-2(4,7)-pyrido[4,3-d]pyrimidina-3(1,2)-benzenacyclodecaphan-8-one] |
| ≤ 100 | O=C1CCCc2c(F)ccc3cc(O)cc(c23)-c2ncc3c(nc(OC[C@@]45CCCN4C[C@H](F)C5)nc3c2F)N2CCCC(CCN1)C2 (stereo partly drawn) [Compound 118a, 2^8,3^7-difluoro-2^2-(((2R,7aS)-2-fluorotetrahydro-1H-pyrrolizin-7a(5H)-yl)methoxy)-3^3-hydroxy-8-aza-2(4,7)-pyrido[4,3-d]pyrimidina-1(1,3)-piperidina-3(1,8)-naphthalenacyclodecaphan-7-one] |
| 100 to 1000 | Nc1cc2c(c(Cl)c1F)CCCCC(=O)NCC1COCCN(C1)c1nc(OC[C@@]34CCCN3C[C@H](F)C4)nc3c(F)c-2c(F)cc13 (stereo partly drawn) [Compound 184a, 3^5-amino-3^3-chloro-2^6,2^8,3^4-trifluoro-2^2-(((2R,7aS)-2-fluorotetrahydro-1H-pyrrolizin-7a(5H)-yl)methoxy)-9-aza-1(4,6)-oxazepana-2(4,7)-quinazolina-3(1,2)-benzenacyclodecaphan-8-one] |
| 1000 to 10000 | Nc1cc2c(c(Cl)n1)CCCCC(=O)NCCC1(O)CCCN(C1)c1nc(OC[C@@]34CCCN3C[C@H](F)C4)nc3c(F)c-2ccc13 (stereo partly drawn) [Compound 187a, 1^6-amino-1^2-chloro-2^8-fluoro-2^2-(((2R,7aS)-2-fluorotetrahydro-1H-pyrrolizin-7a(5H)-yl)methoxy)-3^3-hydroxy-6-aza-2(7,4)-quinazolina-1(4,3)-pyridina-3(1,3)-piperidinacycloundecaphan-7-one] |
| 100 to 1000 | Nc1cc2c(c(Cl)c1F)CCCCC(=O)NCC1COCCN(C1)c1nc(OC[C@@]34CCCN3C[C@H](F)C4)nc3c(F)c-2ncc13 (stereo partly drawn) [Compound 182a, 3^5-amino-3^3-chloro-2^8,3^4-difluoro-2^2-(((2R,7aS)-2-fluorotetrahydro-1H-pyrrolizin-7a(5H)-yl)methoxy)-9-aza-1(4,6)-oxazepana-2(4,7)-pyrido[4,3-d]pyrimidina-3(1,2)-benzenacyclodecaphan-8-one] |
